Results taken from patent US11419855B2, “Pharmaceutical preparation” (KOWA COMPANY, LTD., priority 2017, dated 2022).

Key:
[1] = Examination of stability of pemafibrate, stored alone in open state in dish (HPLC related substances); format: physicochemical
Experimental: 250 mg of pemafibrate was placed in a dish, and stored in an uncapped state (open state) in a dark place at 40° C. and 75% relative humidity (RH) for 3 months.
The amounts of pemafibrate-derived decomposition products (related substances) before the start of storage and after storage at 40° C. and 75% RH for 3 months were evaluated through the following method.
The sum of related substance-derived peak areas was evaluated in terms of a ratio (%) to the pemafibrate-derived peak area using an HPLC apparatus, and the ratio was defined as the “Total amount (%) of related substances”.

[2] = Hygroscopic property evaluation of pemafibrate crystal (Karl Fischer moisture content); format: physicochemical
Experimental: A pemafibrate crystal was produced by recrystallizing pemafibrate from an ethyl acetate/heptane mixture in accordance with the method for producing a pemafibrate crystal as described in Non-Patent Document 1.
250 mg of the pemafibrate crystal was placed in a dish, and stored in an uncapped state (open state) in a dark place at 25° C. and 83% relative humidity (RH) for 3 months. The hygroscopic property was evaluated by measuring the moisture contents before and after the storage. The measurement of the moisture content was performed by a coulometric titration method in accordance with The Japanese Pharmacopoeia, 17th Edition, Moisture Content Measurement Method (Karl Fischer Method).

Stability at high humidity ([1]; 75% RH, storage for 3 months, in words)	Total amount (%) of related substances, before storage ([1]; before storage, HPLC ratio of related substance peak areas to pemafibrate peak area) [%]	Total amount (%) of related substances, after storage at 40° C. and 75% RH for 3 months ([1]; open state in dish, dark place, 40° C., 75% RH, 3 months) [%]	Moisture content (%), before storage ([2]; before storage, Karl Fischer coulometric titration) [%]	Moisture content (%), after storage at 25° C. and 83% RH for 3 months ([2]; open state in dish, dark place, 25° C., 83% RH, 3 months) [%]	Hygroscopic property ([2]; storage at 83% RH for 3 months, in words)	SMILES
stable	<0.05	<0.05				CC[C@@H](Oc1cccc(CN(CCCOc2ccc(OC)cc2)c2nc3ccccc3o2)c1)C(=O)O [Pemafibrate, (2R)-2-[3-([1,3-Benzoxazol-2-yl[3-(4-methoxyphenoxy)propyl]amino]methyl)phenoxy]butanoic acid]
			<0.1	<0.1	not hygroscopic	CC[C@@H](Oc1cccc(CN(CCCOc2ccc(OC)cc2)c2nc3ccccc3o2)c1)C(=O)O [Pemafibrate crystal, (2R)-2-[3-([1,3-Benzoxazol-2-yl[3-(4-methoxyphenoxy)propyl]amino]methyl)phenoxy]butanoic acid]
